In ChEMBL document CHEMBL1201862, “PubChem BioAssay data set” (2004):
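Interpolation was linear, between the two tested concentrations surrounding the appropriate level; five concentrations were tested over 48 hours in 96-well plates. Abbreviation: GI50, concentration required for 50% inhibition of growth.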 Activity calls are given as the source filed them. No stated cut-off is given here; in the data, active = GI50 up to about 1.1 µM and inactive = higher.

Experiments:
Assay in all cases: inhibition of tumour cell growth, NCI panel, 48 h
786-0 = tested on: 786-0
A498 = tested on: A498
CAKI-1 = tested on: CAKI-1
DU-145 = tested on: DU-145
HCC 2998 = tested on: HCC 2998
Hs-578T = tested on: Hs-578T
KM12 = tested on: KM12
LOX IMVI = tested on: LOX IMVI
MCF7 = tested on: MCF7
Malme-3M = tested on: Malme-3M
NCI-H522 = tested on: NCI-H522
OVCAR-3 = tested on: OVCAR-3
OVCAR-4 = tested on: OVCAR-4
SK-MEL-28 = tested on: SK-MEL-28
SK-OV-3 = tested on: SK-OV-3
SNB-19 = tested on: SNB-19
SNB-75 = tested on: SNB-75
T47D = tested on: T47D
TK-10 = tested on: TK-10
UACC-257 = tested on: UACC-257

Measured: GI50

C=C(C)CNCC(=C)C.Oc1c(Cl)c(Cl)c(Cl)c(Cl)c1Cl
inactive: 786-0 19.4 µM | A498 20.4 µM | CAKI-1 21.4 µM | DU-145 15.2 µM | HCC 2998 > 100 µM | Hs-578T 35.6 µM | KM12 20.4 µM | LOX IMVI 22.3 µM | MCF7 26.6 µM | Malme-3M 17.4 µM | NCI-H522 22 µM | OVCAR-3 11 µM | OVCAR-4 23.5 µM | SK-MEL-28 28.2 µM | SK-OV-3 43.4 µM | SNB-19 32.1 µM | SNB-75 16.6 µM | T47D 18.2 µM | TK-10 > 100 µM | UACC-257 > 100 µM

COc1ccc(/C=C/c2nccc3ccccc23)cc1OC
inactive: 786-0 > 10 µM | A498 9.73 µM | CAKI-1 > 10 µM | DU-145 > 10 µM | HCC 2998 > 10 µM | Hs-578T > 10 µM | KM12 8.13 µM | LOX IMVI 4.57 µM | MCF7 2.43 µM | Malme-3M > 10 µM | NCI-H522 > 10 µM | OVCAR-3 9.2 µM | OVCAR-4 > 10 µM | SK-MEL-28 > 10 µM | SK-OV-3 > 10 µM | SNB-19 > 10 µM | SNB-75 > 10 µM | T47D > 10 µM | TK-10 > 10 µM | UACC-257 > 10 µM

COc1ccc(-n2cnc3c(NCC(=O)O)ncnc32)cc1
inactive: 786-0 > 100 µM | A498 > 100 µM | CAKI-1 > 100 µM | DU-145 > 100 µM | HCC 2998 > 100 µM | Hs-578T > 100 µM | KM12 > 100 µM | LOX IMVI > 100 µM | MCF7 > 100 µM | Malme-3M 54.1 µM | NCI-H522 > 100 µM | OVCAR-3 > 100 µM | OVCAR-4 > 100 µM | SK-MEL-28 > 100 µM | SK-OV-3 > 100 µM | SNB-19 > 100 µM | SNB-75 > 100 µM | T47D > 100 µM | TK-10 > 100 µM | UACC-257 > 100 µM

Cc1c2c(n(CCc3ccc(Cl)cc3)c1C)NC(c1ccccc1)C(C#N)S2(=O)=O (stereo not given)
inactive: 786-0 32.3 µM | A498 > 85.7 µM | CAKI-1 > 100 µM | DU-145 > 60 µM | HCC 2998 > 100 µM | Hs-578T 26.1 µM | KM12 18.3 µM | LOX IMVI 24.5 µM | MCF7 5.14 µM | Malme-3M 20.5 µM | NCI-H522 11.7 µM | OVCAR-3 > 91.2 µM | OVCAR-4 > 70.1 µM | SK-MEL-28 > 76.6 µM | SK-OV-3 > 90.6 µM | SNB-19 > 100 µM | SNB-75 44.7 µM | T47D 17.9 µM | TK-10 > 100 µM | UACC-257 58.6 µM

CC(C)(C)OC(=O)NC1CC=CCC1NC(=O)OC(C)(C)C (stereo not given)
inactive: 786-0 > 100 µM | A498 > 100 µM | CAKI-1 > 100 µM | DU-145 > 100 µM | HCC 2998 > 100 µM | Hs-578T > 100 µM | KM12 > 100 µM | LOX IMVI > 100 µM | MCF7 > 100 µM | Malme-3M > 100 µM | NCI-H522 > 100 µM | OVCAR-3 > 100 µM | OVCAR-4 > 100 µM | SK-MEL-28 > 100 µM | SK-OV-3 > 100 µM | SNB-19 > 100 µM | SNB-75 > 100 µM | T47D > 100 µM | TK-10 > 100 µM | UACC-257 > 100 µM

C=CCN(c1cc(OC)c2[nH]cc(C)c2c1[N+](=O)[O-])S(C)(=O)=O
inactive: 786-0 > 100 µM | A498 > 100 µM | CAKI-1 2.55 µM | DU-145 > 100 µM | HCC 2998 > 100 µM | Hs-578T > 100 µM | KM12 > 100 µM | LOX IMVI > 100 µM | MCF7 > 100 µM | Malme-3M > 100 µM | NCI-H522 > 100 µM | OVCAR-3 > 100 µM | OVCAR-4 > 100 µM | SK-MEL-28 > 100 µM | SK-OV-3 > 100 µM | SNB-19 > 100 µM | SNB-75 > 100 µM | T47D > 100 µM | TK-10 > 100 µM | UACC-257 > 100 µM

c1ccc2nc3c(nc2c1)sc1ccccc13
inactive: 786-0 23 µM | A498 27.4 µM | CAKI-1 9.25 µM | DU-145 50 µM | HCC 2998 32.9 µM | Hs-578T 30.5 µM | KM12 47.4 µM | LOX IMVI 19.3 µM | MCF7 26.5 µM | Malme-3M 46.9 µM | NCI-H522 24.2 µM | OVCAR-3 29.4 µM | OVCAR-4 17.5 µM | SK-MEL-28 > 100 µM | SK-OV-3 13.2 µM | SNB-19 14.5 µM | SNB-75 22.2 µM | T47D > 100 µM | TK-10 19.3 µM | UACC-257 37.2 µM
